Assay results: patent publication US20090018111A1, “Novel Antimicrobial Medicament” (priority 2004, published 2009)
Read-outs that look alike come from different tables or passages of the source.

Columns and labels:
Assay in all cases: Sensitivity test (agar dilution)
[1] = tested on: P. aeruginosa TL-2666; assay type: cell-based, Pseudomonas aeruginosa; details: Pseudomonas aeruginosa
Description: (§1) The antibacterial activities were tested against various 18 bacteria (27 standard strains) which are representative bacteria caused clinically infectious disease (Staphylococcus aureus 3 strains, Staphylococcus epidermidis 1 strain, Micrococcus luteus 1 strain, Streptococcus pyogenes 1 strain, Enterococcus faecalis 1 strain, Enterococcus faecium 1 strain, Bacillus subtilis 1 strain, Escherichia coli 3 strains, Klebsiella pneumoniae 1 strain, Proteus mirabilis 1 strain, Proteus vulgaris 2 strains, Pseudomonas aeruginosa 3 strains, Serratia marcescens 2 strains, Enterobacter aerogenes 1 strain, Stenotrophomonas maltophilia 1 strain, Enterobacter cloacae 1 strain, Citrobacter freundii 1 strain, Moraxella catarrhalis 2 strains).
(§2) According to the standard method of Japan Chemotherapeutic Society (Chemotherapy, vol. […], p 76-79 (1981)) the test was carried out using the agar dilution method. After dissolving test samples in distilled water, agar medium containing the test samples was prepared in such a manner that the final concentration became twice serial dilution by pouring serially diluted combination drug solution or a single drug solution into agar medium. As agar medium was used Mueller Hinton Agar medium (MHA). Then, each strain was cultivated over night at 37° C. in an incubator and suspended in buffered saline solution with gelatin (BSG) in the concentration of about 10^6 CFU/ml. The suspension (about 5 μl) containing test strains was inoculated to the medium containing the test samples by Micro Planter.
(§3) When the sample is subjected to sensitivity test, this mixed solution was diluted by twice serial dilution method.
(§4) Furthermore, when the drug is solely used, each test sample was used as it is, and diluted by twice serial dilution method from the maximum concentration to the minimum concentration.
(§5) FIC index based on MIC value was calculated. […] Namely, when FIC index calculated by the following formula is equal or less than 1, the enhanced effect of the combination drug in said ratio is considered as positive. When FIC index is over 1, the enhanced effect of the combination drug in said ratio is considered as negative.
(§6) Formula of FIC index: FIC index=(MIC of Drug A in combination/MIC of Drug A alone)+(MIC of Drug B in combination/MIC of Drug B alone) N.C. in tables means being not calculated.

[2] = tested on: P. aeruginosa IFO3451; assay type: cell-based, Pseudomonas aeruginosa; details: Pseudomonas aeruginosa
Description: as §1, §2, §3, §4, §5, §6

[3] = tested on: P. aeruginosa TL-2667; assay type: cell-based, Pseudomonas aeruginosa; details: Pseudomonas aeruginosa
Description: as §1, §2, §3, §4, §5, §6

[4] = tested on: B. subtilis ATCC6633; assay type: cell-based, Bacillus subtilis; details: Bacillus subtilis, B. subtilis ATCC6633, read-out: MIC concomitant
Description: as §1, §2, §3, §4, §5, §6

Measured: MIC

C[C@H]1C=C(c2csc(SC3=C(C(=O)O)N4C(=O)[C@H]([C@@H](C)O)[C@H]4[C@H]3C)n2)CN1 [SM, (4R,5S,6S)-6-[(1R)-1-Hydroxyethyl]-4-methyl-3-({4-[(5S)-5-methyl-2,5-dihydro-1H-pyrrol-3-yl]-1,3-thiazol-2-yl}sulfanyl)-7-oxo-1-azabicyclo[3.2.0]hept-2-ene-2-carboxylic acid]
2 µg/mL: [1]; TL2666, Concomitant (CPFX:SM = 1:1), P. aeruginosa TL-2666, read-out: MIC concomitant | [1]; TL2666, Concomitant (MEPM:SM = 1:2), read-out: MIC | [2]; IFO3451, Concomitant (AZT:SM = 1:1), P. aeruginosa IFO3451, read-out: MIC concomitant | [2]; IFO3451, Concomitant (CAZ:SM = 1:1), P. aeruginosa IFO3451, read-out: MIC concomitant | [2]; IFO3451, Concomitant (MEPM:SM = 1:4), read-out: MIC | [2]; IFO3451, Concomitant (PAPM:SM = 1:1), P. aeruginosa IFO3451, read-out: MIC concomitant | [3]; TL2667, Concomitant (CPFX:SM = 1:1), P. aeruginosa TL-2667, read-out: MIC concomitant | [3]; TL2667, Concomitant (DRPM:SM = 1:1), P. aeruginosa TL-2667, read-out: MIC concomitant | [3]; TL2667, Concomitant drug (MEPM:SM = 2:1), read-out: MIC
8 µg/mL: [1]; TL2666, Concomitant (AZT:SM = 1:1), P. aeruginosa TL-2666, read-out: MIC concomitant | [1]; TL2666, Concomitant (CAZ:SM = 1:1), P. aeruginosa TL-2666, read-out: MIC concomitant | [1]; TL2666, Concomitant (PAPM:SM = 1:1), P. aeruginosa TL-2666, read-out: MIC concomitant | [2]; IFO3451, Concomitant (PIPC:SM = 1:1), P. aeruginosa IFO3451, read-out: MIC concomitant | [2]; IFO3451, alone, read-out: MIC | [2]; IFO3451, drug alone, P. aeruginosa IFO3451, read-out: MIC alone | [3]; TL2667, Concomitant (AZT:SM = 1:1), P. aeruginosa TL-2667, read-out: MIC concomitant | [3]; TL2667, Concomitant (CAZ:SM = 1:1), P. aeruginosa TL-2667, read-out: MIC concomitant | [3]; TL2667, Concomitant (IPM:SM = 1:1), read-out: MIC | [3]; TL2667, Concomitant (MEPM:SM = 1:4), read-out: MIC
4 µg/mL: [1]; TL2666, Concomitant (MEPM:SM = 1:4), read-out: MIC | [3]; TL2667, Concomitant (BIPM:SM = 1:1), P. aeruginosa TL-2667, read-out: MIC concomitant | [3]; TL2667, Concomitant (MEPM:SM = 1:1), read-out: MIC | [3]; TL2667, Concomitant (MEPM:SM = 1:2), read-out: MIC
0.25 µg/mL: [2]; IFO3451, Concomitant (BIPM:SM = 1:1), P. aeruginosa IFO3451, read-out: MIC concomitant | [2]; IFO3451, Concomitant (DRPM:SM = 1:1), P. aeruginosa IFO3451, read-out: MIC concomitant | [2]; IFO3451, Concomitant drug (MEPM:SM = 2:1), read-out: MIC
≤ 0.002 µg/mL: [4]; ATCC6633, Concomitant (AZT:SM = 1:1) | [4]; ATCC6633, Concomitant (BIPM:SM = 1:1)
0.125 µg/mL: [2]; IFO3451, Concomitant (CPFX:SM = 1:1), P. aeruginosa IFO3451, read-out: MIC concomitant
0.5 µg/mL: [1]; TL2666, Concomitant drug (MEPM:SM = 2:1), read-out: MIC | [2]; IFO3451, Concomitant (IPM:SM = 1:1), read-out: MIC | [2]; IFO3451, Concomitant (MEPM:SM = 1:1), read-out: MIC
16 µg/mL: [1]; TL2666, Concomitant (PIPC:SM = 1:1), P. aeruginosa TL-2666, read-out: MIC concomitant | [1]; TL2666, alone, read-out: MIC | [1]; TL2666, drug alone, P. aeruginosa TL-2666, read-out: MIC alone | [3]; TL2667, Concomitant (PAPM:SM = 1:1), P. aeruginosa TL-2667, read-out: MIC concomitant | [3]; TL2667, Concomitant (PIPC:SM = 1:1), P. aeruginosa TL-2667, read-out: MIC concomitant | [3]; TL2667, alone, read-out: MIC | [3]; TL2667, drug alone, P. aeruginosa TL-2667, read-out: MIC alone
1 µg/mL: [1]; TL2666, Concomitant (BIPM:SM = 1:1), P. aeruginosa TL-2666, read-out: MIC concomitant | [1]; TL2666, Concomitant (DRPM:SM = 1:1), P. aeruginosa TL-2666, read-out: MIC concomitant | [1]; TL2666, Concomitant (IPM:SM = 1:1), read-out: MIC | [1]; TL2666, Concomitant (MEPM:SM = 1:1), read-out: MIC | [2]; IFO3451, Concomitant (MEPM:SM = 1:2), read-out: MIC
